Assay results from patent EP4349409A1, “COMPOUNDS FOR THE MANAGEMENT OF CELL STEMNESS AND INVASION IN CANCER AND RELATED DISEASES” (Instituto Biomar S.A., priority 2022, dated 2024).
pIC50: −log10 of the molar value.

What was measured:
GNSC = assay: Immunostaining for Nestin, Tuj1 and GFAP (differentiation) in GNSC; type: cell-based; conditions: 4.5 µM
Protocol: Moreover, we asked whether BMT9, at IC50 concentration, induced differentiation of these GNSC. For these experiments, cells were seeded under proliferation conditions and treated with BMT9 at 4.5 µM for 72 h. Cells were fixed with 3.7% paraformaldehyde for 15 min and immunostained with Nestin, Tuj1 and GFAP specific antibodies. Samples were analyzed using a Zeiss LSM800 confocal microscopy. To quantify the percentage of neural (Tuj-1) (Figure 7D) and astrocytic (GFAP+) (Figure 7E) differentiated cells, positive cells for each marker were manually counted and compared with the total number of cells.

G144 cells = assay: Annexin V / propidium iodide apoptosis flow cytometry in G144 cells; type: cell-based, human; conditions: 48 h
Protocol: For apoptosis induction analysis, the cells were treated with increasing amounts of BMT9 (4.5 µM and 9 µM) and collected 48 h after treatment. Anexin V and propidium iodide staining was performed using the FITC Annexin V Apoptosis Detection Kit I (BD Biosciences), following the manufacturer's instructions. Flow cytometry was performed with the "MACSQuantify Analyzer" (Miltenyi Biotec) and data were analyzed with "MACSQuantify" software (Miltenyi Biotec) (Figure 7A).

G144-GNSC cells = assay: Transcriptome comparison (DESeq2) of G144-GNSC cells after treatment; type: cell-based, human; conditions: DESeq2, p-adj<0.01, treated vs non-treated G144-GNSC
Source text: Finally, to elucidate the molecular basis of BMT9 effect on the stemness potential of the GNSCs, we compared the transcriptome of non-treated G144-GNSC cells with those after BMT9 treatment. The DESeq2 analysis identified 6163 differentially expressed genes (DEGs) with a p-adj<0.01. […] Among the found DEGs we found GSC markers like PROM1(CD133), LGR5, or SOX1 and SOX4, as well as key regulators involved in maintenance of the cancer cell stemness state like SOX9 (Wang et al., 2018)(Aldaz et al., 2020), CDC20 (Gujar et al., 2016) or AURKA, known to govern self-renewal capacity in glioma-initiating cells via stabilization/activation of β-catenin/Wnt signaling (Xia et al., 2013) and proposed, together with CCNA2, and TPX2, as ideal drug targets in GBM (Du et al., 2020). Table 3. Correlation of GNSCs transcriptomic profiles after BMT9 treatment with published gene signatures of stemness.

G179 [1] = assay: MTT-based cytotoxicity assay, G179; type: cell-based; conditions: G179, 72 h after treatment
G144 = assay: Scratch (wound healing) assay, G144; type: cell-based, human; conditions: G144, 4.5µM, 24 h
Protocol: (§1) The effect of BMT9 in cell migration was evaluated using scratch assays, also known as wound healing assays. Cells were seeded in culture inserts for wound healing assays (Ibidi) at a cell density of 35,000 cells/cm^2; 24 h later the insert was removed to create the wound, and fresh medium was added with the corresponding treatment. Microscopy images were acquired at the time of treatment and 24 h later, using a Leica DMI3000 phase contrast microscope. Analysis was performed using the ImageJ software (Schindelin et al., 2012) and the MRI wound healing tool plugin (Suarez-Arnedo et al., 2020). Cell-free area was measured at the two indicated time points and the wound closure percentage relative to the starting point was calculated for each well individually. This assay was performed in G144 and in G179 cells (Figure 10 B and C, respectively).

CD133 = CD133 stemness marker flow cytometry in G144 cells; type: cell-based, human; conditions: G144, 48 hours; BMT9 4.5-9 µM, TMZ 500 µM, BCNU 250 µM
Protocol: Next, we asked if BMT9 treatment at IC50 could specifically affect the stemness of GNSC. To address this point, cells were seeded and treated 24 h later with BMT9 (4.5-9 µM), TMZ (500 µM) or BCNU (250 µM). After 48 hours of treatment, cells were collected and stained with a CD133 (stemness marker) antibody (AC133, Milyenty Biotec) or the corresponding Ig-isotype control. Flow cytometric analysis were performed with the previously mentioned equipment.

U373 = assay: MTT-based cytotoxicity assay, U373; type: cell-based; conditions: Homo sapiens, U373 MG, 72 h
Protocol: A dose-response analysis of BMT9 (concentrations ranging from 4.5 µM-18 µM), BCNU (from 150 µM-500 µM) and TMZ (350 µM-700 µM) was performed in two conventional glioblastoma cell lines (T98G, U373) and the GNS cell line G144 by MTT-based cytotoxicity assays (Figure 5A-D). Cells were seeded on p96-well plates and treated with the different compounds for 72 h. Then, the MTT reagent (3-(4,5-Dimethyl-2-thiazolyl)-2,5-diphenyl-2H-tetrazolium bromide diluted in PBS to a concentration of 1mg/ml), was added to each well to a final concentration of 0.33mg/ml, and incubated for 3 h at 37°C. After that, the media was removed, and formazan crystals were solubilized with DMSO. Absorbance was measured at 560 nm using a "Synergy HT" plate reader (Biotek). In the graphs, the Y axis represents the percentage of cell viability relative to non-treated cells. The IC50, when reached are marked by a rectangle. DMSO treatment had no effect on cell viability.

G179 [2] = assay: Scratch (wound healing) assay, G179; type: cell-based; conditions: G179, 4.5µM, 24 h
Protocol: as §1

## C=C1C2CCC(C)(C3COc4c(C)c(OC)c5c(c4C3O)C(O)OC5=O)C1CCC2(C)C (centres unmarked) [BMT9]
GNSC; 72 h (data not shown)
  expression of the stem cell marker Nestin: reduced the expression of the stem cell marker Nestin
GNSC; 72 h, proliferating culture conditions
  neural differentiation (Tuj1 and GFAP positive cells): induced neural differentiation
G144 cells; G144, 4.5 µM (IC50 dosage)
  apoptosis induction: moderate levels of apoptosis
G144 cells; G144, 9 µM
  apoptosis induction: strongly induced cell death
G144-GNSC cells
  differentially expressed genes (DEGs): 6163
G179 [1]
  concentration as low as which still reduced viability: 6.75 µM
G144
  cell migration (wound closure): significantly impaired cell migration
CD133
  CD133 expression levels (Mean Fluorescence Intensity): significantly reduced
  percentage of CD133 positive cells: significantly reduced
U373
  pIC50: 4.74
G179 [2]
  cell migration (wound closure): significantly impaired cell migration
